Experimental data reported in patent US20090111811A1, “1,2,4-TRIAZOLE CARBOXYLIC ACID DERIVATIVES AS MODULATORS OF MGLUR5” (AstraZeneca AB, priority 2007, published 2009).

Tests used:
[1] = Determination of brain to plasma ratio in rat; type: in vivo; conditions: brain and plasma, female Sprague Dawley rats, read-out: Brain/Plasma Ratio of compound in Rat
Experimental: Brain to plasma ratios are estimated in female Sprague Dawley rats. The compound is dissolved in water or another appropriate vehicle. For determination of brain to plasma ratio the compound is administrated as a subcutaneous, or an intravenous bolus injection, or an intravenous infusion, or an oral administration. At a predetermined time point after the administration a blood sample is taken with cardiac puncture. The rat is terminated by cutting the heart open, and the brain is immediately retained. The blood samples are collected in heparinized tubes and centrifuged within 30 minutes, in order to separate the plasma from the blood cells. The plasma is transferred to 96-well plates and stored at −20° C. until analysis. The brains are divided in half, and each half is placed in a pre-tarred tube and stored at −20° C. until analysis. Prior to the analysis, the brain samples are thawed and 3 mL/g brain tissue of distilled water is added to the tubes. The brain samples are sonicated in an ice bath until the samples are homogenized. Both brain and plasma samples are precipitated with acetonitrile. After centrifugation, the supernatant is diluted with 0.2% formic acid. […] After reconstitution of the residuals the samples are ready for injection onto the HPLC column.

human mGluR5d = target: T1, human mGluR5d (Homo sapiens, UniProt P41594); experiment: FLIPR assay, functional assessment of mGluR5 antagonism (intracellular calcium mobilization); type: cell-based; conditions: cells expressing human mGluR5d; IC50 determination; read-out: FLIPR hmGluR5d
T1 construct: expressed in transfected cells; The cells are kept under Hygromycin B and Zeocin selection; The separate IP3 assay names GHEK cells stably expressing human mGluR5d
Source text: Functional Assessment of mGluR5 Antagonism in Cell Lines Expressing mGluR5D
The properties of the compounds of the invention can be analyzed using standard assays for pharmacological activity. Examples of glutamate receptor assays are well known in the art as described in for example Aramori et al., Neuron 8:757 (1992), Tanabe et al., Neuron 8:169 (1992), Miller et al., J. Neuroscience 15: 6103 (1995), Balazs, et al., J Neurochemistry 69:151 (1997). The methodology described in these publications is incorporated herein by reference. […]
Cells expressing human mGluR5d as described in WO97/05252 cultured in a mixture of high glucose DMEM with Glutamax (31966-021)(500 mL), 10% dialyzed fetal bovine serum (Hyclone #SH30079.03)(56 mL), 200 μg/mL Hygromycin B (Invitrogen 45-0430, 50 mg/mL)(2.2 mL), 200 μg/mL Zeocin (Invitrogen #R250-01; 100 mg/mL)(1.1 mL) are seeded at a density of 100,000 cells per well on collagen coated clear bottom 96-well plates with black sides and cells were allowed to adhere over night before experiments. […] The fluorescence signal is sampled 50 times at 1-second intervals followed by 3 samples at 5-second intervals immediately after each of the two additions. Responses are measured as the difference between the peak heights of the response to agonist, less the background fluorescence within the sample period. […]

T1 sequence (P41594 21-942 isoform P41594-3 limits assumed): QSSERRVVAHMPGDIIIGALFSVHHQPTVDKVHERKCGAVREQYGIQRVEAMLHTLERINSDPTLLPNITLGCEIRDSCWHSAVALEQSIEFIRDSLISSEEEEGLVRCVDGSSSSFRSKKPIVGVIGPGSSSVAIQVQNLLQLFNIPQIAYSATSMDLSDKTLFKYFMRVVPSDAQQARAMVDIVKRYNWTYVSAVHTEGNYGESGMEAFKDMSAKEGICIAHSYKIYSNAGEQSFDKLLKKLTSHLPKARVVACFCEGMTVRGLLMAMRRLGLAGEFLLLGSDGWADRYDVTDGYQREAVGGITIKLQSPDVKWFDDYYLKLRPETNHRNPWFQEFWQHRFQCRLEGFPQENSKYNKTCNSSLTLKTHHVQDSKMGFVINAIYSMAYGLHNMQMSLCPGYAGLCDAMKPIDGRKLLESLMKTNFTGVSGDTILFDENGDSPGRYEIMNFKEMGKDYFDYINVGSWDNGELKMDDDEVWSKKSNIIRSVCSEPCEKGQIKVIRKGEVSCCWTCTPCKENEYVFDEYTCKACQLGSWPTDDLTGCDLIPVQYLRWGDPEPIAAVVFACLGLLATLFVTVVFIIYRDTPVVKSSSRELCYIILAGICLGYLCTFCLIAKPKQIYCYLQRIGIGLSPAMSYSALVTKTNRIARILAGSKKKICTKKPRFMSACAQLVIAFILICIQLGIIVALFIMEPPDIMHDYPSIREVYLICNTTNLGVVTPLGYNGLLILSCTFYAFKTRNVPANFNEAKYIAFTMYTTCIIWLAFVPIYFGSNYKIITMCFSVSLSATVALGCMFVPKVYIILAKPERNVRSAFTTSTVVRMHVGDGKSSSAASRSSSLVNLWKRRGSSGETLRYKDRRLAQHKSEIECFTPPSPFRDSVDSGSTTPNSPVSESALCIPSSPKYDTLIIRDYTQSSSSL

Compound `Cn1c(-c2ccc(C(N)=O)cc2)nnc1N1CCC[C@@H]1c1cc(-c2cccc(Cl)c2)on1` [Example 6.1, 4-[5-[(2R)-2-[5-(3-Chlorophenyl)1,2-oxazol-3-yl]pyrrolidin-1-yl]-4-methyl-1,2,4-triazol-3-yl]benzamide] has a Kp [1] of less than 0.01 and an IC50 (human mGluR5d) of 0.011 µM.

Compound `CNC(=O)c1ccc(-c2nnc(N3CCC[C@@H]3c3cc(-c4cccc(Cl)c4)on3)n2C)cc1` [Example 6.2, 4-[5-[(2R)-2-[5-(3-Chlorophenyl)1,2-oxazol-3-yl]pyrrolidin-1-yl]-4-methyl-1,2,4-triazo1-3-yl]-N-methyl-benzamide] has a Kp [1] of less than 0.01 and an IC50 (human mGluR5d) of 0.016 µM.
